This is an account of results in patent publication US9067943B2, “[1,2,3]triazolo[4,5-D]pyrimidine derivatives” (priority 2011, dated 2015).

A word on the pEC50: it is the negative decadic logarithm of the EC50, by convention in mol/L.

In one assay the target is T1, human CB2 receptors (Homo sapiens, UniProt P34972).
T1 construct: expressed in transfected cells; host or cells: CHO cells
Briefly: cAMP assay. Format: cell-based. As to the method:
(§1) CHO cells expressing human CB1 or CB2 receptors are seeded 17-24 hours prior to the experiment 50.000 cells per well in a black 96 well plate with flat clear bottom (Corning Costar #3904) in DMEM (Invitrogen No. 31331), 1×HT supplement, with 10% fetal calf serum and incubated at 5% CO2 and 37° C. in a humidified incubator. The growth medium was exchanged with Krebs Ringer Bicarbonate buffer with 1 mM IBMX and incubated at 30° C. for 30 min. Compounds were added to a final assay volume of 100 μl and incubated for 30 min at 30° C. Using the cAMP-Nano-TRF detection kit the assay (Roche Diagnostics) was stopped by the addition of 50 μl lysis reagent (Tris, NaCl, 1.5% Triton X100, 2.5% NP40, 10% NaN3) and 50 μl detection solutions (20 μM mAb Alexa700-cAMP 1:1, and 48 μM Ruthenium-2-AHA-cAMP) and shaken for 2 h at room temperature. The time-resolved energy transfer is measured by a TRF reader (Evotec Technologies GmbH), equipped with a ND:YAG laser as excitation source. The plate is measured twice with the excitation at 355 nm and at the emission with a delay of 100 ns and a gate of 100 ns, total exposure time 10 s at 730 (bandwidth 30 nm) or 645 nm (bandwidth 75 nm), respectively. The FRET signal is calculated as follows: FRET=T730-Alexa730-P(T645-B645) with P=Ru730-B730/Ru645-B645, where T730 is the test well measured at 730 nM, T645 is the test well measured at 645 nm, B730 and B645 are the buffer controls at 730 nm and 645 nm, respectively. cAMP content is determined from the function of a standard curve spanning from 10 μM to 0.1 nM cAMP.
(§2) EC50 values were determined using Activity Base analysis (ID Business Solution, Limited). The EC50 values for a wide range of cannabinoid agonists generated from this assay were in agreement with the values published in the scientific literature.
(In general: Cyclic AMP is a second messenger, typically raised through Gs and lowered through Gi signalling.)

In a further assay the target is T2, human CB1 receptors (Homo sapiens, UniProt P21554).
T2 construct: expressed in transfected cells; host or cells: CHO cells
T2 sequence (P21554 whole entry): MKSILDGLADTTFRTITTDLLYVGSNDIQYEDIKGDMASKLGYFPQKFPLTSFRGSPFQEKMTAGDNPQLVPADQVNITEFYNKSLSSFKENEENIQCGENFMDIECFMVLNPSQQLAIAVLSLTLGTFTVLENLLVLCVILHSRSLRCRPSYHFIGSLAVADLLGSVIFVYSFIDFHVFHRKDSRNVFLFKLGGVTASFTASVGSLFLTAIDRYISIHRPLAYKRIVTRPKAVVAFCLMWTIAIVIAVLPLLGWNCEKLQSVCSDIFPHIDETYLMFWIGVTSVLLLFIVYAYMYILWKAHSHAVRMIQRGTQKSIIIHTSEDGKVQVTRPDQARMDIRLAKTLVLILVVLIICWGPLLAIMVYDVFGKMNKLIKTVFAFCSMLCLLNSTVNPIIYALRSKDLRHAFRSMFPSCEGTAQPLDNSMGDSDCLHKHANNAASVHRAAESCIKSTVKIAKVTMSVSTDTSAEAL
Briefly: cAMP assay. It counts as cell-based. As to the method:
as §1, §2

Where [1] appears, read: functional cAMP assay, CHO cells expressing human CB2, read-out: human CB2 EC50.

pEC50: −log10 of the molar value. Like-named read-outs stand apart in the source and are kept apart here. A value given as a limit tells only on which side of the number the result lay.

T1 sequence (P34972 whole entry): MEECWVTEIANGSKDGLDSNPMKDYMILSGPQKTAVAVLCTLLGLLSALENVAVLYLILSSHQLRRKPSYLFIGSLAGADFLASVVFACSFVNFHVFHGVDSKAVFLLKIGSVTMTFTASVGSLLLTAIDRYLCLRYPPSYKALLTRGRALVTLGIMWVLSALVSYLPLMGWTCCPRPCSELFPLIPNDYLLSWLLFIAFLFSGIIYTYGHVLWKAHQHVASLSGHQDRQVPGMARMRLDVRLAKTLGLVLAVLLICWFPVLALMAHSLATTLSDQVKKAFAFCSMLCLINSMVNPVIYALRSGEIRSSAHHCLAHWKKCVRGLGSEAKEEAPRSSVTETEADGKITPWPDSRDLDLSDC

The molecule `CC(C)(C)c1nc(N2CCC(F)(F)C2)c2nn(C3COC3)nc2n1` [Example 32, 5-tert-Butyl-7-(3,3-difluoro-pyrrolidin-1-yl)-2-oxetan-3-yl-2H-[1,2,3]triazolo[4,5-d]pyrimidine] showed a pEC50 at human CB2 receptors of 7.72.
Turning to `CC(C)(C)c1nc(N2CC[C@](C)(O)C2)c2nn(Cc3ccccc3C(F)(F)F)nc2n1` [Example 125-a, (S)-1-[5-tert-Butyl-2-(2-trifluoromethyl-benzyl)-2H-[1,2,3]triazolo[4,5-d]pyrimidin-7-yl]-3-methyl-pyrrolidin-3-ol], the pEC50 is 9.40 on human CB2 receptors and 6.40 at human CB1 receptors.
The corresponding values for `O[C@H]1CCN(c2nc(OCC(F)(F)F)nc3nn(Cc4ccccc4C(F)(F)F)nc23)C1` [Example 110, (S)-1-[5-(2,2,2-Trifluoro-ethoxy)-2-(2-trifluoromethyl-benzyl)-2H-[1,2,3]triazolo[4,5-d]pyrimidin-7-yl]-pyrrolidin-3-ol] are 7.22 and under 5.00.
`CC1(Cn2nc3nc(C(C)(C)C)nc(N4CCC(F)(F)C4)c3n2)COC1` [Example 51, 5-tert-Butyl-7-(3,3-difluoro-pyrrolidin-1-yl)-2-(3-methyl-oxetan-3-ylmethyl)-2H-[1,2,3]triazolo[4,5-d]pyrimidine]: the pEC50 at human CB2 receptors is 9.05; at human CB1 receptors, under 5.00.
With `CC(C)(C)c1nc(N2CCC(F)(F)C2)c2nn(Cc3cccc(Cl)c3)nc2n1` [Example 7, 5-tert-Butyl-2-(3-chloro-benzyl)-7-(3,3-difluoro-pyrrolidin-1-yl)-2H-[1,2,3]triazolo[4,5-d]pyrimidine], the values for the negative logarithm of the EC50 (pEC50) on human CB2 receptors and on human CB1 receptors were 8.39 and under 5.00, respectively.
Turning to `Cn1nnnc1Cn1nc2nc(C(C)(C)C)nc(N3CC[C@](C)(O)C3)c2n1` [Example 130-a, (S)-1-[5-tert-Butyl-2-(1-methyl-1H-tetrazol-5-ylmethyl)-2H-[1,2,3]triazolo[4,5-d]pyrimidin-7-yl]-3-methyl-pyrrolidin-3-ol], the pEC50 was 6.76 at human CB2 receptors (setting [1]) and under 5.00 at human CB1 receptors.
With `CC(C)(C)Nc1nc(N2CCC(F)(F)C2)c2nn(Cc3ncccc3Cl)nc2n1` [Example 138, tert-Butyl-[2-(3-chloro-pyridin-2-ylmethyl)-7-(3,3-difluoro-pyrrolidin-1-yl)-2H-[1,2,3]triazolo[4,5-d]pyrimidin-5-yl]-amine], the results for the pEC50 on human CB2 receptors and at human CB1 receptors were 7.27 and under 5.00, respectively.
The corresponding values for `CC(C)(C)c1nc(N2CCC(F)(F)C2)c2nn(Cc3ccccn3)nc2n1` [Example 15, 5-tert-Butyl-7-(3,3-difluoro-pyrrolidin-1-yl)-2-pyridin-2-ylmethyl-2H-[1,2,3]triazolo[4,5-d]pyrimidine] are 9.15 and 6.68.
Take `Cn1nnnc1Cn1nc2nc(NC(C)(C)C)nc(N3CC[C@H](O)C3)c2n1` [Example 145, (S)-1-[5-tert-Butylamino-2-(1-methyl-1H-tetrazol-5-ylmethyl)-2H-[1,2,3]triazolo[4,5-d]pyrimidin-7-yl]-pyrrolidin-3-ol]: the results for the pEC50 on human CB2 receptors (setting [1]) and at human CB1 receptors were 5.96 and under 5.00, respectively.
As for `C[C@H](Oc1nc(N2CCC(F)(F)C2)c2nn(Cc3nnnn3C)nc2n1)C(F)(F)F` [Example 120, 7-(3,3-Difluoro-pyrrolidin-1-yl)-2-(1-methyl-1H-tetrazol-5-ylmethyl)-5-((S)-2,2,2-trifluoro-1-methyl-ethoxy)-2H-[1,2,3]triazolo[4,5-d]pyrimidine], the negative-log EC50 (pEC50) at human CB2 receptors is 7.16; at human CB1 receptors it was under 5.00.
As to `CC(C)(C)c1nc(N2CCC(F)(F)C2)c2nn(CC(=O)c3ccccc3)nc2n1` [Example 27, 2-[5-tert-Butyl-7-(3,3-difluoro-pyrrolidin-1-yl)-[1,2,3]triazolo[4,5-d]pyrimidin-2-yl]-1-phenyl-ethanone], the pEC50 at human CB2 receptors is 9.05; at human CB1 receptors, under 5.00.
As for `Cc1nnc(Cn2nc3nc(C(C)(C)C)nc(N4CCC(F)(F)C4)c3n2)n1C` [Example 83, 5-tert-Butyl-7-(3,3-difluoro-pyrrolidin-1-yl)-2-(4,5-dimethyl-4H-[1,2,4]triazol-3-ylmethyl)-2H-[1,2,3]triazolo[4,5-d]pyrimidine], the pEC50 on human CB2 receptors is 8.21; at human CB1 receptors, under 5.00.
With `COCCn1nc2nc(C(C)(C)C)nc(N3CCC(F)(F)C3)c2n1` [Example 4, 5-tert-Butyl-7-(3,3-difluoro-pyrrolidin-1-yl)-2-(2-methoxy-ethyl)-2H-[1,2,3]triazolo[4,5-d]pyrimidine], the pEC50 was 8.10 on human CB2 receptors and under 5.00 at human CB1 receptors.
As to `Cc1nnc(Cn2nc3nc(C(C)(C)C)nc(N4CC5(COC5)C4)c3n2)n1C` [Example 106, 5-tert-Butyl-2-(4,5-dimethyl-4H-[1,2,4]triazol-3-ylmethyl)-7-(2-oxa-6-aza-spiro[3.3]hept-6-yl)-2H-[1,2,3]triazolo[4,5-d]pyrimidine], the negative logarithm of the EC50 (pEC50) was 7.20 at human CB2 receptors and under 5.00 at human CB1 receptors.
For `CC(C)(C)c1nc(N2CCC(F)(F)C2)c2nn(Cc3cc(Cl)ccc3Cl)nc2n1` [Example 11, 5-tert-Butyl-2-(2,5-dichloro-benzyl)-7-(3,3-difluoro-pyrrolidin-1-yl)-2H-[1,2,3]triazolo[4,5-d]pyrimidine], the pEC50 is 8.92 at human CB2 receptors and under 5.00 on human CB1 receptors.
Take `C[C@H](Oc1nc(N2CCC(F)(F)C2)c2nn(Cc3nnnn3C3CC3)nc2n1)C(F)(F)F` [Example 123, 2-(1-Cyclopropyl-1H-tetrazol-5-ylmethyl)-7-(3,3-difluoro-pyrrolidin-1-yl)-5-((S)-2,2,2-trifluoro-1-methyl-ethoxy)-2H-[1,2,3]triazolo[4,5-d]pyrimidine]: the pEC50 at human CB2 receptors was 7.31; on human CB1 receptors it was under 5.00.
In the case of `CC(C)(C)c1nc(N2CCC(F)(F)C2)c2nn(Cc3ccccc3OC(F)(F)F)nc2n1` [Example 24, 5-tert-Butyl-7-(3,3-difluoro-pyrrolidin-1-yl)-2-(2-trifluoromethoxy-benzyl)-2H-[1,2,3]triazolo[4,5-d]pyrimidine], the pEC50 is 9.40 on human CB2 receptors and under 5.00 at human CB1 receptors.
On to `Cc1nnc(Cn2nc3nc(O[C@@H](C)C(F)(F)F)nc(N4CCC(F)(F)C4)c3n2)o1` [Example 118, 7-(3,3-Difluoro-pyrrolidin-1-yl)-2-(5-methyl-[1,3,4]oxadiazol-2-ylmethyl)-5-((S)-2,2,2-trifluoro-1-methyl-ethoxy)-2H-[1,2,3]triazolo[4,5-d]pyrimidine], for which the pEC50 at human CB2 receptors (setting [1]) is 6.36; at human CB1 receptors it was under 5.00.
Turning to `CC(C)(C)c1nc(N2CCC(F)(F)C2)c2nn(Cc3cnccc3Cl)nc2n1` [Example 35, 5-tert-Butyl-2-(4-chloro-pyridin-3-ylmethyl)-7-(3,3-difluoro-pyrrolidin-1-yl)-2H-[1,2,3]triazolo[4,5-d]pyrimidine], the pEC50 on human CB2 receptors was 9.30; on human CB1 receptors it was 6.19.
The corresponding values for `CC(C)(C)c1nc(N2CCC(F)(F)C2)c2nn(Cc3nnnn3C3CC3)nc2n1` [Example 92, 5-tert-Butyl-2-(1-cyclopropyl-1H-tetrazol-5-ylmethyl)-7-(3,3-difluoro-pyrrolidin-1-yl)-2H-[1,2,3]triazolo[4,5-d]pyrimidine] are 8.30 and 5.80.
Turning to `CC(C)(C)c1nc(N2CCC(F)(F)C2)c2nn(CCc3cccnc3)nc2n1` [Example 58, 5-tert-Butyl-7-(3,3-difluoro-pyrrolidin-1-yl)-2-(2-pyridin-3-yl-ethyl)-2H-[1,2,3]triazolo[4,5-d]pyrimidine], the pEC50 at human CB2 receptors was 8.37; at human CB1 receptors, under 5.00.
`CC(=O)N[C@H]1CCN(c2nc(OCC(C)(C)C)nc3nn(Cc4ccccc4Cl)nc23)C1` [Example 134, N—{(S)-1-[2-(2-Chloro-benzyl)-5-(2,2-dimethyl-propoxy)-2H-[1,2,3]triazolo[4,5-d]pyrimidin-7-yl]-pyrrolidin-3-yl}-acetamide]: the pEC50 at human CB2 receptors (setting [1]) is 6.17; on human CB1 receptors, under 5.00.
Turning to `CC(C)(C)c1nc(N2CCC(F)(F)C2)c2nn(Cc3nccc(Cl)c3Cl)nc2n1` [Example 61, 5-tert-Butyl-2-(3,4-dichloro-pyridin-2-ylmethyl)-7-(3,3-difluoro-pyrrolidin-1-yl)-2H-[1,2,3]triazolo[4,5-d]pyrimidine], the pEC50 on human CB2 receptors was 8.59; at human CB1 receptors it was under 5.00.
On human CB2 receptors, `CC(C)(C)c1nc(N2CCC(F)(F)C2)c2nn(Cc3cccc(F)c3Cl)nc2n1` [Example 30, 5-tert-Butyl-2-(2-chloro-3-fluoro-benzyl)-7-(3,3-difluoro-pyrrolidin-1-yl)-2H-[1,2,3]triazolo[4,5-d]pyrimidine] had a pEC50 of 9.15.
In turn, `CC(C)(C)c1nc(N2CCC(F)(F)C2)c2nn(Cc3cc(F)ccc3Cl)nc2n1` [Example 31, 5-tert-Butyl-2-(2-chloro-5-fluoro-benzyl)-7-(3,3-difluoro-pyrrolidin-1-yl)-2H-[1,2,3]triazolo[4,5-d]pyrimidine] showed a pEC50 on human CB2 receptors of 9.30.
